For 27 compounds, TGI results are on record in PubChem BioAssay (NCI).

SMILES strings stand for the structures.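 Step 1: Grow cells in 96-well plates. Step 2: Expose to compound for 48 hours at 5 concentrations. Step 3: Interpolate endpoints linearly; if unreached, use highest concentration. Definition used: TGI = concentration required for complete inhibition of growth.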

What all share (assay): NCI tumour cell line growth inhibition, 48 h
Assay [1] deals with SR leukemia.
Assay [2] deals with KM12 colon.
Assay [3] concerns OVCAR-3 ovarian.
The test system of assay [4] is HCC-2998 colon.
For assay [5], the system named is UACC-257 melanoma.
For assay [6], the system named is RXF 393 renal.
For assay [7], the system named is NCI-H226 lung.
The test system of assay [8] is COLO 205 colon.
The subject of assay [9] is BT-549 breast.
The subject of assay [10] is LOX IMVI melanoma.
The test system of assay [11] is HT29 colon.

For `C=C(C)[C@@H]1CCC2=C[C@H](CC(C)=CC3=CC(C)=C(O3)[C@@H]1OC)OC2=O`, the TGI in [1] was more than 100 µM; in [2], more than 100 µM; in assay [3], more than 100 µM; in [4], more than 100 µM; in [5], more than 100 µM; in assay [6] it was 56.9 µM. For the same compound, the TGI in assay [7], in [8] and in assay [9] was more than 100 µM each time.

Regarding `CC(C)(C)[C@H]1CCC2(OCCO2)[C@](O)(CCCO)C1`, the TGI in [1], in [2], in [3], in [4], in [5] and in assay [6] was more than 100 µM throughout. Also, the TGI in assay [7], in assay [8], in assay [9], in assay [10] and in assay [11] was more than 100 µM in each case.

With `O=C1CCCC2=C1CC1=C(CCCC1=O)N2c1ccccc1`, the TGI in assay [1], in [2], in [3], in assay [4], in assay [6] and in assay [7] was more than 100 µM throughout. In addition, the TGI in assay [9], in [10] and in assay [11] was more than 100 µM in each case.

Turning to `COc1cc2c(cc1OC)-c1cc3cc(OC)c(OC)cc3c(=O)n1CC2`, the TGI in [1] was more than 100 µM; in [2], more than 100 µM; in assay [3] it was more than 100 µM; in [4], more than 100 µM; in [5], more than 78.4 µM; in assay [6], more than 69.8 µM. In addition, the TGI in assay [7] was more than 85.9 µM; in [8] it was more than 100 µM; in assay [9], more than 100 µM; in assay [10] it was more than 100 µM; in assay [11] it was more than 100 µM.

On to `Clc1nc(Cl)c(CBr)c(Cl)n1`, for which the TGI in assay [1] is more than 100 µM; in assay [2], 7.87 µM; in assay [3] it was 13.3 µM; in assay [4], 30.8 µM; in assay [5], 33.9 µM; in assay [6] it was 21.4 µM. The TGI in [7] was more than 51.7 µM; in assay [8], 20.9 µM; in assay [9], 4.17 µM; in assay [10], 4.14 µM; in assay [11], 32.9 µM.

In the case of `CCOC(=O)C(C(=O)OCC)=C1NC2(c3ccccc3Nc3ccc(C)cc32)C(C(=O)OC)S1` (stereo unspecified), the TGI is more than 100 µM in assay [1]; more than 100 µM in [2]; more than 100 µM in assay [3]; more than 100 µM in [4]; more than 100 µM in assay [5]; 70.6 µM in assay [6]. Besides, the TGI in [7] is more than 100 µM; in assay [8] it was 57.9 µM; in assay [9] it was more than 100 µM; in assay [10], more than 100 µM; in [11], more than 100 µM.

As to `CC(NC(=O)C(N)CC(=O)O)NC(=O)N(C)C(C)(C)C` (stereo unspecified), the TGI in assay [1], in [2], in assay [3], in assay [4], in assay [5] and in assay [6] was more than 100 µM in each case. Besides, the TGI in assay [7], in [8], in assay [9], in assay [10] and in [11] was more than 100 µM in each case.

Turning to `COC(=O)c1ccccc1C1CN=NC12Cc1cccc(C)c1C2=O` (stereo unspecified), the TGI in [1] is more than 100 µM; in assay [2], more than 100 µM; in assay [3], 82.1 µM; in assay [4], more than 100 µM; in assay [5], more than 100 µM; in assay [6] it was more than 100 µM. The TGI in assay [7], in [9], in assay [10] and in assay [11] was more than 100 µM each time.

With `CCSc1nc(N)c2c(-c3ccccc3)c3c(nc2n1)CCC3`, the TGI in assay [1], in assay [2], in assay [3], in assay [5], in assay [6] and in assay [8] was more than 100 µM in each case. Further, the TGI in assay [9] and in assay [10] was more than 100 µM throughout.

Turning to `NC1CC(=O)c2sccc21` (stereo unspecified), the TGI in assay [1], in assay [2], in assay [3], in assay [4], in assay [5] and in assay [6] was more than 100 µM each time. In addition, the TGI in assay [7], in assay [8], in assay [9] and in [11] was more than 100 µM throughout.

`O=C1C(NCCN2CCOCC2)=C(Cl)C(=O)c2ncccc21`: the TGI turned out to be 3.3 µM in [1]; 2.61 µM in assay [2]; 5.48 µM in assay [3]; 1.94 µM in [4]; 1.4 µM in assay [6]; 3.64 µM in assay [7]. For the same compound, the TGI is 2.57 µM in [9], 0.928 µM in [10] and 2.95 µM in assay [11].

For the compound `Nn1c(Cc2ccccc2)n[nH]c1=O`, the TGI in assay [1], in assay [2], in assay [3], in [4], in assay [5] and in assay [7] was more than 100 µM throughout. The TGI in assay [8], in [9], in [10] and in assay [11] was more than 100 µM throughout.

`COc1ccc(Oc2nc(C#CC(C)(C)O)nc(Oc3ccc(OC)cc3)n2)cc1`: the TGI in assay [1] came out at 3.79 µM; in [2], 29.2 µM; in assay [3], 4.58 µM; in [5], 38.2 µM; in [6] it was 2.85 µM; in [8], 16.9 µM. Also, the results for the TGI in [9], in [10] and in assay [11] were 31.1 µM, 3 µM and 10.8 µM, respectively.

Take `c1ccc2nc(CCC3CCCCN3)ccc2c1` (stereo unspecified): the TGI in assay [1], in [2], in assay [4], in assay [5], in [6] and in [7] was more than 100 µM in each case. Further, the TGI is 31.5 µM in assay [8], more than 100 µM in assay [9], more than 100 µM in assay [10] and more than 100 µM in assay [11].

`O=[N+]([O-])c1ccc2c(c1)c(S(=O)(=O)O)cc1nonc12`: the TGI in assay [1], in assay [2], in assay [3], in [5], in [7] and in [8] was more than 100 µM each time. Further, the TGI in assay [9], in assay [10] and in assay [11] was more than 100 µM throughout.

`CCOc1ccc2nc(NC(NC(=O)c3cccnc3)(C(F)(F)F)C(F)(F)F)sc2c1`: the TGI was more than 100 µM in [1]; more than 100 µM in assay [2]; more than 100 µM in [3]; 84.3 µM in [4]; 69.4 µM in assay [5]; 61.1 µM in [6]. In addition, the TGI in assay [7] is more than 100 µM; in assay [8] it was more than 100 µM; in assay [9] it was more than 100 µM; in assay [11], 30.5 µM.

As to `Cc1nc(C(N)=S)sc1C(=O)C/C(=N/N)C(=O)Nc1ccc(Cl)cc1`, the TGI in assay [1], in assay [2], in assay [3], in assay [4], in assay [5] and in assay [6] was more than 100 µM each time. The TGI in [7], in [9], in assay [10] and in assay [11] was more than 100 µM each time.

`O=C(OCCC12CC3CC(CC(C3)C1)C2)c1ccc(NCc2cc(O)ccc2O)cc1`: the TGI amounted to 4.43 µM in [1]; 3.43 µM in assay [2]; 0.626 µM in assay [3]; 2.38 µM in assay [5]; 4.9 µM in [6]; 8.62 µM in [7]. Also, the TGI amounted to 1.2 µM in assay [8], 0.684 µM in assay [9], 4.37 µM in [10] and 10.6 µM in assay [11].

For `c1ccc(C(CCN2CC3CCC(CC3)C2)c2ccccc2)cc1`, the TGI is 46.4 µM in [1]; 87.4 µM in [2]; 44.3 µM in assay [3]; 31.9 µM in assay [5]; 37.9 µM in assay [6]; 35.6 µM in assay [7]. Further, the TGI in assay [8] is 25.1 µM; in assay [9] it was more than 100 µM; in [10] it was 30.6 µM; in assay [11], 48.4 µM.

On to `CCN(CC)C(=O)N1CN(c2ccccc2)C2(CCN(CCCSc3ccc(F)cc3)CC2)C1=O`, for which the TGI worked out at 18 µM in assay [1]; 25.3 µM in [2]; 18.6 µM in [3]; 12.8 µM in [5]; 29.7 µM in assay [6]; 44.4 µM in [7]. Also, the TGI turned out to be 31.4 µM in assay [9], 10.7 µM in assay [10] and 13 µM in assay [11].

For the compound `Cc1nc2ccccc2n1Cc1nnc(N)o1`, the TGI in [1], in [2], in assay [3], in assay [4], in assay [5] and in assay [6] was more than 100 µM each time. Besides, the TGI in [8], in assay [9], in [10] and in assay [11] was more than 100 µM in each case.

In the case of `O=[N+]([O-])c1ccc(Cl)cc1N/N=C/c1cccc2cccnc12`, the TGI in [1] is 38 µM; in [2], more than 100 µM; in assay [3], more than 100 µM; in assay [4], more than 100 µM; in assay [5], more than 100 µM; in assay [6], more than 100 µM. Besides, the TGI in [8], in [9] and in assay [11] was more than 100 µM each time.

In the case of `c1ccc2c(c1)CC1COc3ccccc3C1O2` (stereo unspecified), the TGI in assay [1], in [2], in assay [3], in assay [4], in assay [5] and in assay [7] was more than 100 µM in each case. Besides, the TGI in [8], in assay [9], in assay [10] and in assay [11] was more than 100 µM each time.

For `COc1ccc(-c2cc(-c3cc(F)c(Cl)cc3Cl)on2)cc1OC`, the TGI in assay [1] was 13.1 µM; in assay [2] it was more than 100 µM; in assay [3] it was more than 100 µM; in assay [5], more than 100 µM; in [6], 46.6 µM; in assay [7], 80.6 µM. Besides, the TGI in assay [8] was 92.3 µM; in [9], more than 100 µM; in assay [10], more than 100 µM; in assay [11], more than 100 µM.

As for `Cc1nnc(-n2c(O)cc(=O)n(-c3ccccc3)c2=S)nc1/C=C/c1ccc(N(C)C)cc1`, the TGI is more than 100 µM in [1]; 21 µM in assay [2]; 22.7 µM in assay [4]; more than 55.8 µM in assay [5]; more than 58.5 µM in assay [6]; more than 100 µM in assay [7]. Further, the TGI is 21.2 µM in [8], more than 70.7 µM in assay [9], 17.5 µM in [10] and more than 100 µM in [11].

Regarding `N#Cc1ccc(Oc2nc3ccc(C(F)(F)F)cc3nc2-c2ccccc2)cc1`, the TGI in assay [1] is 9.86 µM; in assay [2], 48.6 µM; in assay [3], 44.8 µM; in assay [4], 32.3 µM; in assay [5], 54.7 µM; in [6] it was 77.8 µM. For the same compound, the TGI in assay [8] was 50.9 µM; in assay [9], more than 100 µM; in assay [10] it was 91.1 µM; in [11], 34.5 µM.

Turning to `CC1(C)CC2(C)CC1CC2NC(=O)CCN1CCOCC1` (stereo unspecified), the TGI in assay [1], in [2], in assay [3], in assay [4], in [5] and in assay [6] was more than 100 µM each time. The TGI in [7], in assay [8], in assay [9] and in assay [11] was more than 100 µM each time.
